Measurements taken from ChEMBL document CHEMBL5346877, “A-ring-fused pyrazoles of dihydrotestosterone targeting prostate cancer cells via the downregulation of the androgen receptor” (Eur J Med Chem, 2023).
Active and inactive are the calls of the source. No cut-off for these calls is given here.

Legend:
LAPC4 [1] = assay: Cytotoxicity against human LAPC4 cells assessed as cell viability at 20 uM incubated for 72 hrs by resazurin dye based microplate reader assay; type: functional; details: read-out: Activity
LAPC4 [2] = assay: Inhibition of colony formation in human LAPC4 cells at 5 uM incubated for 10 days by crystal violet staining based assay; type: functional, cell-based; details: time 10.0 day
[3] = molecular target: T1, Androgen receptor (Homo sapiens) (UniProt P10275); assay: Antagonist activity at AR in human LAPC4 cells assessed as reduction in Nkx3.1 expression at 10 uM incubated for 24 hrs in presence of R1881 by Western blotting analysis; type: cell-based; details: filed as antagonist
T1 sequence (whole entry): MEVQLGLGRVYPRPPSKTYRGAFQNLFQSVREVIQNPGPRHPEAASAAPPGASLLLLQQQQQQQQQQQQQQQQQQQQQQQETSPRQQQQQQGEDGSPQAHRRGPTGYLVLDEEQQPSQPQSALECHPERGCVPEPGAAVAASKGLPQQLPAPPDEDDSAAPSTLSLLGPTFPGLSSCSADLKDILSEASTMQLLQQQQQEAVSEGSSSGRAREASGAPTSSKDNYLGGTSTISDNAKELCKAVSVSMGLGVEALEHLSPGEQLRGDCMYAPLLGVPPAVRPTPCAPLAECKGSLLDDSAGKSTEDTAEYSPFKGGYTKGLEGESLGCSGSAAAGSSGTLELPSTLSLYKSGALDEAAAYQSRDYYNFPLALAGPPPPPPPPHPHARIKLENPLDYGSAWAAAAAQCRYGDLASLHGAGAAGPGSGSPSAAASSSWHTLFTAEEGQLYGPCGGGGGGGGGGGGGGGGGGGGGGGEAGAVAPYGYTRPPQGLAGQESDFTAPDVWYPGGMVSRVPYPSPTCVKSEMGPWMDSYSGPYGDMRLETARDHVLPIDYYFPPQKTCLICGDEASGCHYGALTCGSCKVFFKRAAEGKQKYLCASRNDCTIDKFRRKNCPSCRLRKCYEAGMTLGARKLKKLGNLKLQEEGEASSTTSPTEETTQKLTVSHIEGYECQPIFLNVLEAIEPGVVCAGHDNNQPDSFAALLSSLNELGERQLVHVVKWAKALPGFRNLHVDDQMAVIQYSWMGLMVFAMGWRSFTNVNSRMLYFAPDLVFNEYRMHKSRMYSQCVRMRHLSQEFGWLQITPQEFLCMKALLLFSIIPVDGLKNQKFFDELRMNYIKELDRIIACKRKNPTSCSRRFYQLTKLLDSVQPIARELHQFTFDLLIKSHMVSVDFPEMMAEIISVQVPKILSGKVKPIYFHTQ

[4] = molecular target: T1, Androgen receptor (Homo sapiens); assay: Antagonist activity at AR in human LAPC4 cells assessed as reduction in PSA expression at 10 uM incubated for 24 hrs in presence of R1881 by Western blotting analysis; type: cell-based; details: filed as antagonist
LAPC4 [5] = assay: Inhibition of colony formation in human LAPC4 cells at 10 uM incubated for 10 days by crystal violet staining based assay; type: functional; details: LAPC4, 240 h, time 10 day
CWR22R = assay: Cytotoxicity against human 22Rv1 cells assessed as cell viability at 20 uM incubated for 72 hrs by resazurin dye based microplate reader assay; type: functional; details: read-out: Activity
DU-145 = assay: Cytotoxicity against human DU-145 cells assessed as cell viability at 20 uM incubated for 72 hrs by resazurin dye based microplate reader assay; type: functional; details: read-out: Activity
[6] = Downregulation of AR protein expression in human LAPC4 cells assessed as AR levels at 10 uM incubated for 24 hrs by immunoblotting analysis; type: functional
LAPC4 [7] = assay: Downregulation of PSA protein expression in human LAPC4 cells at 10 uM incubated for 24 hrs by immunoblotting analysis; type: functional, cell-based
LAPC4 [8] = assay: Downregulation of Nkx3.1 protein expression in human LAPC4 cells at 10 uM incubated for 24 hrs by immunoblotting analysis; type: functional, cell-based

With `Cc1c2c(nn1-c1ccccc1)C[C@@H]1CC[C@@H]3[C@H](CC[C@]4(C)[C@@H](O)CC[C@@H]34)[C@@]1(C)C2` the viability at 20 µM (LAPC4 [1]) was 65%, the inhibition (LAPC4 [2]) was “Active” and the Activity [3] was “Active”. The Activity [4] was “Active”, the inhibition at 10 µM (LAPC4 [5]) was 1% and the viability at 20 µM (CWR22R) was 24%. The viability at 20 µM (DU-145) was 97%.
For `Cn1nc2c(c1-c1ccc(Br)cc1)C[C@@]1(C)[C@@H](CC[C@@H]3[C@@H]1CC[C@]1(C)C(=O)CC[C@@H]31)C2`, the viability at 20 µM (LAPC4 [1]) was 20%, the inhibition (LAPC4 [2]) was “Active” and the Activity [6] was 49%. For the same compound, the Activity [3] was “Active”, the Activity [4] was “Active” and the inhibition at 10 µM (LAPC4 [5]) was 15%. The viability at 20 µM (CWR22R) was 56% and the viability at 20 µM (DU-145) was 96%.
In the case of `Cc1ccc(-n2cc3c(n2)C[C@@H]2CC[C@@H]4[C@H](CC[C@]5(C)[C@@H](O)CC[C@@H]45)[C@@]2(C)C3)cc1`, the viability at 20 µM (LAPC4 [1]) is reported as ≥ 100%, the Activity (LAPC4 [7]) is reported as “inactive” and the Activity [6] is reported as “>=100%”. For the same compound, the inhibition at 10 µM (LAPC4 [5]) was 42%, the viability at 20 µM (CWR22R) was ≥ 100% and the viability at 20 µM (DU-145) was 100%. For the same compound, the Activity (LAPC4 [8]) was “inactive”.
With `COc1ccc(-n2cc3c(n2)C[C@@H]2CC[C@@H]4[C@H](CC[C@]5(C)[C@@H](O)CC[C@@H]45)[C@@]2(C)C3)cc1` the viability at 20 µM (LAPC4 [1]) was 99%, the Activity (LAPC4 [7]) was “inactive” and the Activity [6] was “>=100%”. For the same compound, the inhibition at 10 µM (LAPC4 [5]) was 65%, the viability at 20 µM (CWR22R) was ≥ 100% and the viability at 20 µM (DU-145) was ≥ 100%. The Activity (LAPC4 [8]) was “inactive”.
For `C[C@]12Cc3cn(-c4ccc(Cl)cc4)nc3C[C@@H]1CC[C@@H]1[C@@H]2CC[C@]2(C)[C@@H](O)CC[C@@H]12`, the viability at 20 µM (LAPC4 [1]) was 82%, the Activity (LAPC4 [7]) was “inactive” and the Activity [6] was “>=100%”. For the same compound, the inhibition at 10 µM (LAPC4 [5]) was 98%, the viability at 20 µM (CWR22R) was ≥ 100% and the viability at 20 µM (DU-145) was ≥ 100%. For the same compound, the Activity (LAPC4 [8]) was “inactive”.
